In US11498899B2, “Nitrone herbicides” (FMC Corporation, priority 2016, dated 2022):

Assays:
[1] = tested on: barnyardgrass (Echinochloa crus-galli); experiment: Test A preemergence, visual injury rating 0-100 (0 no effect, 100 complete control); type: in vivo
[2] = tested on: pigweed (Amaranthus retroflexus); experiment: Test A postemergence, visual injury rating 0-100; type: in vivo; conditions: 0 to 100 scale
[3] = tested on: barnyardgrass (Echinochloa crus-galli); experiment: Test A postemergence, visual injury rating 0-100; type: in vivo; conditions: 0 to 100 scale
[4] = tested on: galium (catchweed bedstraw, Galium aparine); experiment: Test A postemergence, visual injury rating 0-100; type: in vivo; conditions: 0 to 100 scale
[5] = tested on: blackgrass (Alopecurus myosuroides); experiment: Test A postemergence, visual injury rating 0-100; type: in vivo; conditions: 0 to 100 scale
[6] = tested on: corn (Zea mays); experiment: Test A postemergence, visual injury rating 0-100; type: in vivo; conditions: 0 to 100 scale
[7] = tested on: foxtail, giant (giant foxtail, Setaria faberii); experiment: Test A postemergence, visual injury rating 0-100; type: in vivo; conditions: 0 to 100 scale
[8] = tested on: ragweed (common ragweed, Ambrosia elatior); experiment: Test A postemergence, visual injury rating 0-100; type: in vivo; conditions: 0 to 100 scale
[9] = tested on: ryegrass, Italian (Italian ryegrass, Lolium multiflorum); experiment: Test A postemergence, visual injury rating 0-100; type: in vivo; conditions: 0 to 100 scale
[10] = tested on: wheat (Triticum aestivum); experiment: Test A postemergence, visual injury rating 0-100; type: in vivo; conditions: 0 to 100 scale
[11] = tested on: kochia (Kochia scoparia); experiment: Test A postemergence, visual injury rating 0-100; type: in vivo; conditions: 0 to 100 scale
[12] = tested on: ducksalad (Heteranthera limosa); experiment: Test B flooded paddy test, visual rating 0-100; conditions: Flood, 250 g ai/ha, applied to paddy water, rated after 13 to 15 days
[13] = tested on: pigweed (Amaranthus retroflexus); experiment: Test A preemergence, visual injury rating 0-100; type: in vivo
[14] = tested on: foxtail, giant (giant foxtail, Setaria faberii); experiment: Test A preemergence, visual injury rating 0-100; type: in vivo
[15] = tested on: ragweed (common ragweed, Ambrosia elatior); experiment: Test A preemergence, visual injury rating 0-100; type: in vivo
[16] = tested on: ryegrass, Italian (Italian ryegrass, Lolium multiflorum); experiment: Test A preemergence, visual injury rating 0-100; type: in vivo
[17] = tested on: kochia (Kochia scoparia); experiment: Test A preemergence, visual injury rating 0-100; type: in vivo
[18] = tested on: barnyardgrass (Echinochloa crus-galli); experiment: Test B flooded paddy test, visual rating 0-100; conditions: Flood, 250 g ai/ha, applied to paddy water, rated after 13 to 15 days
[19] = tested on: rice (Oryza sativa); experiment: Test B flooded paddy test, visual rating 0-100 (0 no effect, 100 complete control); conditions: Flood, 250 g ai/ha, applied to paddy water, rated after 13 to 15 days

CC1=[N+]([O-])C(C(=O)Nc2cccc(F)c2F)C(c2cc(C(F)(F)F)ccc2C)C1 (centres unmarked) [Compound 98]
Barnyardgrass plant response rating (0 to 100 scale) ([1]; 125 g ai/ha): 90
Barnyardgrass plant response rating (0 to 100 scale) ([1]; 500 g ai/ha): 90
Pigweed plant response rating ([2]; 125 g ai/ha): 0
Pigweed plant response rating ([2]; 500 g ai/ha): 30
Barnyardgrass plant response rating ([3]; 125 g ai/ha): 70
Barnyardgrass plant response rating ([3]; 500 g ai/ha): 90
Galium plant response rating ([4]; 125 g ai/ha): 0
Galium plant response rating ([4]; 500 g ai/ha): 40
Blackgrass plant response rating ([5]; 125 g ai/ha): 70
Blackgrass plant response rating ([5]; 500 g ai/ha): 70
Corn plant response rating ([6]; 125 g ai/ha): 60
Corn plant response rating ([6]; 500 g ai/ha): 80
Foxtail, Giant plant response rating ([7]; 125 g ai/ha): 80
Foxtail, Giant plant response rating ([7]; 500 g ai/ha): 90
Ragweed plant response rating ([8]; 125 g ai/ha): 30
Ragweed plant response rating ([8]; 500 g ai/ha): 30
Ryegrass, Italian plant response rating ([9]; 125 g ai/ha): 40
Ryegrass, Italian plant response rating ([9]; 500 g ai/ha): 70
Wheat plant response rating ([10]; 125 g ai/ha): 60
Wheat plant response rating ([10]; 500 g ai/ha): 70
Kochia plant response rating ([11]; 125 g ai/ha): 0
Kochia plant response rating ([11]; 500 g ai/ha): 0
Ducksalad plant response rating (0 to 100 scale) [12]: 100
Pigweed plant response rating (0 to 100 scale) ([13]; 125 g ai/ha): 0
Pigweed plant response rating (0 to 100 scale) ([13]; 500 g ai/ha): 70
Foxtail, Giant plant response rating (0 to 100 scale) ([14]; 125 g ai/ha): 90
Foxtail, Giant plant response rating (0 to 100 scale) ([14]; 500 g ai/ha): 100
Ragweed plant response rating (0 to 100 scale) ([15]; 125 g ai/ha): 20
Ragweed plant response rating (0 to 100 scale) ([15]; 500 g ai/ha): 80
Ryegrass, Italian plant response rating (0 to 100 scale) ([16]; 125 g ai/ha): 90
Ryegrass, Italian plant response rating (0 to 100 scale) ([16]; 500 g ai/ha): 100
Kochia plant response rating (0 to 100 scale) ([17]; 125 g ai/ha): 10
Kochia plant response rating (0 to 100 scale) ([17]; 500 g ai/ha): 80
Barnyardgrass plant response rating (0 to 100 scale) [18]: 55
Rice plant response rating (0 to 100 scale) [19]: 0

CC1=[N+]([O-])C(C(=O)Nc2cccc(F)c2F)C(c2cccc(Cl)c2F)C1 (centres unmarked) [Compound 99]
Barnyardgrass plant response rating (0 to 100 scale) ([1]; 125 g ai/ha): 90
Barnyardgrass plant response rating (0 to 100 scale) ([1]; 500 g ai/ha): 90
Pigweed plant response rating ([2]; 125 g ai/ha): 0
Pigweed plant response rating ([2]; 500 g ai/ha): 40
Barnyardgrass plant response rating ([3]; 125 g ai/ha): 90
Barnyardgrass plant response rating ([3]; 500 g ai/ha): 90
Galium plant response rating ([4]; 125 g ai/ha): 30
Galium plant response rating ([4]; 500 g ai/ha): 50
Blackgrass plant response rating ([5]; 125 g ai/ha): 50
Blackgrass plant response rating ([5]; 500 g ai/ha): 70
Corn plant response rating ([6]; 125 g ai/ha): 0
Corn plant response rating ([6]; 500 g ai/ha): 40
Foxtail, Giant plant response rating ([7]; 125 g ai/ha): 60
Foxtail, Giant plant response rating ([7]; 500 g ai/ha): 90
Ragweed plant response rating ([8]; 125 g ai/ha): 0
Ragweed plant response rating ([8]; 500 g ai/ha): 30
Ryegrass, Italian plant response rating ([9]; 125 g ai/ha): 30
Ryegrass, Italian plant response rating ([9]; 500 g ai/ha): 70
Wheat plant response rating ([10]; 125 g ai/ha): 0
Wheat plant response rating ([10]; 500 g ai/ha): 50
Kochia plant response rating ([11]; 125 g ai/ha): 0
Kochia plant response rating ([11]; 500 g ai/ha): 50
Ducksalad plant response rating (0 to 100 scale) [12]: 85
Pigweed plant response rating (0 to 100 scale) ([13]; 125 g ai/ha): 0
Pigweed plant response rating (0 to 100 scale) ([13]; 500 g ai/ha): 60
Foxtail, Giant plant response rating (0 to 100 scale) ([14]; 125 g ai/ha): 90
Foxtail, Giant plant response rating (0 to 100 scale) ([14]; 500 g ai/ha): 90
Ragweed plant response rating (0 to 100 scale) ([15]; 125 g ai/ha): 10
Ragweed plant response rating (0 to 100 scale) ([15]; 500 g ai/ha): 80
Ryegrass, Italian plant response rating (0 to 100 scale) ([16]; 125 g ai/ha): 50
Ryegrass, Italian plant response rating (0 to 100 scale) ([16]; 500 g ai/ha): 70
Kochia plant response rating (0 to 100 scale) ([17]; 125 g ai/ha): 10
Kochia plant response rating (0 to 100 scale) ([17]; 500 g ai/ha): 70
Barnyardgrass plant response rating (0 to 100 scale) [18]: 60
Rice plant response rating (0 to 100 scale) [19]: 0

COc1cc(C2CC(C)=[N+]([O-])C2C(=O)Nc2cccc(F)c2F)ccc1C(F)(F)F (centres unmarked) [Compound 100]
Barnyardgrass plant response rating (0 to 100 scale) ([1]; 125 g ai/ha): 90
Barnyardgrass plant response rating (0 to 100 scale) ([1]; 500 g ai/ha): 90
Pigweed plant response rating ([2]; 125 g ai/ha): 0
Pigweed plant response rating ([2]; 500 g ai/ha): 40
Barnyardgrass plant response rating ([3]; 125 g ai/ha): 70
Barnyardgrass plant response rating ([3]; 500 g ai/ha): 90
Galium plant response rating ([4]; 125 g ai/ha): 70
Galium plant response rating ([4]; 500 g ai/ha): 80
Blackgrass plant response rating ([5]; 125 g ai/ha): 30
Blackgrass plant response rating ([5]; 500 g ai/ha): 70
Corn plant response rating ([6]; 125 g ai/ha): 30
Corn plant response rating ([6]; 500 g ai/ha): 70
Foxtail, Giant plant response rating ([7]; 125 g ai/ha): 60
Foxtail, Giant plant response rating ([7]; 500 g ai/ha): 90
Ragweed plant response rating ([8]; 125 g ai/ha): 20
Ragweed plant response rating ([8]; 500 g ai/ha): 70
Ryegrass, Italian plant response rating ([9]; 125 g ai/ha): 0
Ryegrass, Italian plant response rating ([9]; 500 g ai/ha): 70
Wheat plant response rating ([10]; 125 g ai/ha): 20
Wheat plant response rating ([10]; 500 g ai/ha): 50
Kochia plant response rating ([11]; 125 g ai/ha): 20
Kochia plant response rating ([11]; 500 g ai/ha): 70
Ducksalad plant response rating (0 to 100 scale) [12]: 0
Pigweed plant response rating (0 to 100 scale) ([13]; 125 g ai/ha): 0
Pigweed plant response rating (0 to 100 scale) ([13]; 500 g ai/ha): 60
Foxtail, Giant plant response rating (0 to 100 scale) ([14]; 125 g ai/ha): 90
Foxtail, Giant plant response rating (0 to 100 scale) ([14]; 500 g ai/ha): 90
Ragweed plant response rating (0 to 100 scale) ([15]; 125 g ai/ha): 0
Ragweed plant response rating (0 to 100 scale) ([15]; 500 g ai/ha): 80
Ryegrass, Italian plant response rating (0 to 100 scale) ([16]; 125 g ai/ha): 0
Ryegrass, Italian plant response rating (0 to 100 scale) ([16]; 500 g ai/ha): 90
Kochia plant response rating (0 to 100 scale) ([17]; 125 g ai/ha): 40
Kochia plant response rating (0 to 100 scale) ([17]; 500 g ai/ha): 80
Barnyardgrass plant response rating (0 to 100 scale) [18]: 0
Rice plant response rating (0 to 100 scale) [19]: 0

CC1=[N+]([O-])C(C(=O)Nc2cccc(F)c2F)C(c2ccc(C(F)(F)F)cc2F)C1 (centres unmarked) [Compound 101]
Barnyardgrass plant response rating (0 to 100 scale) ([1]; 125 g ai/ha): 90
Barnyardgrass plant response rating (0 to 100 scale) ([1]; 500 g ai/ha): 90
Pigweed plant response rating ([2]; 125 g ai/ha): 0
Pigweed plant response rating ([2]; 500 g ai/ha): 60
Barnyardgrass plant response rating ([3]; 125 g ai/ha): 50
Barnyardgrass plant response rating ([3]; 500 g ai/ha): 90
Galium plant response rating ([4]; 125 g ai/ha): 70
Galium plant response rating ([4]; 500 g ai/ha): 80
Blackgrass plant response rating ([5]; 125 g ai/ha): 70
Blackgrass plant response rating ([5]; 500 g ai/ha): 80
Corn plant response rating ([6]; 125 g ai/ha): 20
Corn plant response rating ([6]; 500 g ai/ha): 70
Foxtail, Giant plant response rating ([7]; 125 g ai/ha): 80
Foxtail, Giant plant response rating ([7]; 500 g ai/ha): 90
Ragweed plant response rating ([8]; 125 g ai/ha): 30
Ragweed plant response rating ([8]; 500 g ai/ha): 60
Ryegrass, Italian plant response rating ([9]; 125 g ai/ha): 50
Ryegrass, Italian plant response rating ([9]; 500 g ai/ha): 50
Wheat plant response rating ([10]; 125 g ai/ha): 10
Wheat plant response rating ([10]; 500 g ai/ha): 60
Kochia plant response rating ([11]; 125 g ai/ha): 30
Kochia plant response rating ([11]; 500 g ai/ha): 60
Ducksalad plant response rating (0 to 100 scale) [12]: 90
Pigweed plant response rating (0 to 100 scale) ([13]; 125 g ai/ha): 70
Pigweed plant response rating (0 to 100 scale) ([13]; 500 g ai/ha): 90
Foxtail, Giant plant response rating (0 to 100 scale) ([14]; 125 g ai/ha): 90
Foxtail, Giant plant response rating (0 to 100 scale) ([14]; 500 g ai/ha): 90
Ragweed plant response rating (0 to 100 scale) ([15]; 125 g ai/ha): 10
Ragweed plant response rating (0 to 100 scale) ([15]; 500 g ai/ha): 90
Ryegrass, Italian plant response rating (0 to 100 scale) ([16]; 125 g ai/ha): 40
Ryegrass, Italian plant response rating (0 to 100 scale) ([16]; 500 g ai/ha): 90
Kochia plant response rating (0 to 100 scale) ([17]; 125 g ai/ha): 30
Kochia plant response rating (0 to 100 scale) ([17]; 500 g ai/ha): 90
Barnyardgrass plant response rating (0 to 100 scale) [18]: 50
Rice plant response rating (0 to 100 scale) [19]: 0
